Laboratory results as given in PubChem BioAssay (NCI).
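Test compounds were applied to cells in 96-well plates for 48 hours at 5 doses. TGI marks complete inhibition of growth.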

Columns and labels:
Assay in all cases: DTP human tumour cell line panel, 48 h
A498 renal = test system: A498 renal
SNB-75 CNS = test system: SNB-75 CNS
TK-10 renal = test system: TK-10 renal
UACC-257 melanoma = test system: UACC-257 melanoma
SF-539 CNS = test system: SF-539 CNS
MDA-N = test system: MDA-N
BT-549 breast = test system: BT-549 breast
MOLT-4 leukemia = test system: MOLT-4 leukemia
HOP-92 NSCLC = test system: HOP-92 NSCLC
RXF 393 renal = test system: RXF 393 renal
NCI-H226 lung = test system: NCI-H226 lung
U251 CNS = test system: U251 CNS
NCI-H23 lung = test system: NCI-H23 lung
HT29 colon = test system: HT29 colon
COLO 205 colon = test system: COLO 205 colon
SK-MEL-2 melanoma = test system: SK-MEL-2 melanoma
OVCAR-8 ovarian = test system: OVCAR-8 ovarian
IGROV1 ovarian = test system: IGROV1 ovarian
NCI-H522 lung = test system: NCI-H522 lung
CCRF-CEM leukemia = test system: CCRF-CEM leukemia
OVCAR-4 ovarian = test system: OVCAR-4 ovarian
OVCAR-5 ovarian = test system: OVCAR-5 ovarian
EKVX NSCLC = test system: EKVX NSCLC
HCT-15 colon = test system: HCT-15 colon
SK-MEL-5 melanoma = test system: SK-MEL-5 melanoma
SW-620 colon = test system: SW-620 colon
UACC-62 melanoma = test system: UACC-62 melanoma
ACHN renal = test system: ACHN renal
786-0 renal = test system: 786-0 renal
SNB-19 CNS = test system: SNB-19 CNS
DU-145 prostate = test system: DU-145 prostate
SF-268 CNS = test system: SF-268 CNS
CAKI-1 renal = test system: CAKI-1 renal
HL-60(TB) leukemia = test system: HL-60(TB) leukemia
PC-3 prostate = test system: PC-3 prostate
MDA-MB-231 breast = test system: MDA-MB-231 breast
SK-MEL-28 melanoma = test system: SK-MEL-28 melanoma
A549 NSCLC = test system: A549 NSCLC
M14 melanoma = test system: M14 melanoma
HS 578T breast = test system: HS 578T breast
MDA-MB-435 = test system: MDA-MB-435
NCI-H460 lung = test system: NCI-H460 lung
K-562 leukemia = test system: K-562 leukemia
NCI/ADR-RES ovarian = test system: NCI/ADR-RES ovarian
RPMI-8226 leukemia = test system: RPMI-8226 leukemia
HCT-116 colon = test system: HCT-116 colon
KM12 colon = test system: KM12 colon
SN12C renal = test system: SN12C renal
LOX IMVI melanoma = test system: LOX IMVI melanoma
SR leukemia = test system: SR leukemia
UO-31 renal = test system: UO-31 renal
MCF7 breast = test system: MCF7 breast
MALME-3M melanoma = test system: MALME-3M melanoma
HCC-2998 colon = test system: HCC-2998 colon
T-47D breast = test system: T-47D breast
OVCAR-3 ovarian = test system: OVCAR-3 ovarian
SK-OV-3 ovarian = test system: SK-OV-3 ovarian
SF-295 CNS = test system: SF-295 CNS
HOP-62 NSCLC = test system: HOP-62 NSCLC

## CCN(CC)c1ccc(/C=C/C2=NN(c3cccc(S(=O)(=O)O)c3)C3(C2)SCC(=O)N3c2nc3ccccc3s2)cc1 (stereo not given)
A498 renal
  TGI: 99 µM
SNB-75 CNS
  TGI: > 100 µM
TK-10 renal
  TGI: 94 µM
UACC-257 melanoma
  TGI: > 100 µM
SF-539 CNS
  TGI: > 100 µM
MDA-N
  TGI: > 100 µM
BT-549 breast
  TGI: > 100 µM
MOLT-4 leukemia
  TGI: > 100 µM
HOP-92 NSCLC
  TGI: > 100 µM
RXF 393 renal
  TGI: > 100 µM
NCI-H226 lung
  TGI: > 100 µM
U251 CNS
  TGI: > 100 µM
NCI-H23 lung
  TGI: > 100 µM
HT29 colon
  TGI: > 100 µM
COLO 205 colon
  TGI: 81.1 µM
SK-MEL-2 melanoma
  TGI: > 100 µM
OVCAR-8 ovarian
  TGI: > 100 µM
IGROV1 ovarian
  TGI: > 100 µM
NCI-H522 lung
  TGI: 67.2 µM
CCRF-CEM leukemia
  TGI: 55 µM
OVCAR-4 ovarian
  TGI: > 100 µM
OVCAR-5 ovarian
  TGI: > 100 µM
EKVX NSCLC
  TGI: > 100 µM
HCT-15 colon
  TGI: > 100 µM
SK-MEL-5 melanoma
  TGI: > 100 µM
SW-620 colon
  TGI: > 100 µM
UACC-62 melanoma
  TGI: > 100 µM
ACHN renal
  TGI: > 100 µM
786-0 renal
  TGI: > 100 µM
SNB-19 CNS
  TGI: > 100 µM
DU-145 prostate
  TGI: 75.7 µM
SF-268 CNS
  TGI: > 100 µM
CAKI-1 renal
  TGI: > 100 µM
HL-60(TB) leukemia
  TGI: 80.3 µM
PC-3 prostate
  TGI: > 100 µM
MDA-MB-231 breast
  TGI: > 100 µM
SK-MEL-28 melanoma
  TGI: > 100 µM
A549 NSCLC
  TGI: > 100 µM
M14 melanoma
  TGI: > 100 µM
HS 578T breast
  TGI: > 100 µM
MDA-MB-435
  TGI: 47.2 µM
NCI-H460 lung
  TGI: > 100 µM
K-562 leukemia
  TGI: > 100 µM
NCI/ADR-RES ovarian
  TGI: > 100 µM
RPMI-8226 leukemia
  TGI: 66.8 µM
HCT-116 colon
  TGI: > 100 µM
KM12 colon
  TGI: 60.5 µM
SN12C renal
  TGI: > 100 µM
LOX IMVI melanoma
  TGI: > 100 µM
SR leukemia
  TGI: 86.2 µM
UO-31 renal
  TGI: > 100 µM
MCF7 breast
  TGI: 91.2 µM
MALME-3M melanoma
  TGI: > 100 µM
HCC-2998 colon
  TGI: > 100 µM
T-47D breast
  TGI: 53.9 µM

## CC(C)NC(=O)OCc1c(COC(=O)NC(C)C)n(C)c2c1ccc1ccsc12
A498 renal
  TGI: 35.3 µM
SNB-75 CNS
  TGI: 26.9 µM
TK-10 renal
  TGI: > 94.4 µM
UACC-257 melanoma
  TGI: 31.7 µM
MDA-N
  TGI: 26.1 µM
BT-549 breast
  TGI: 28.4 µM
MOLT-4 leukemia
  TGI: 12.4 µM
HOP-92 NSCLC
  TGI: 45.4 µM
RXF 393 renal
  TGI: 21.1 µM
NCI-H226 lung
  TGI: 28.7 µM
U251 CNS
  TGI: 35.8 µM
NCI-H23 lung
  TGI: 21.8 µM
HT29 colon
  TGI: 38.5 µM
COLO 205 colon
  TGI: 26 µM
SK-MEL-2 melanoma
  TGI: 31.8 µM
OVCAR-8 ovarian
  TGI: 40.5 µM
OVCAR-3 ovarian
  TGI: 40 µM
IGROV1 ovarian
  TGI: 53.3 µM
NCI-H522 lung
  TGI: 21.5 µM
CCRF-CEM leukemia
  TGI: 7.31 µM
OVCAR-4 ovarian
  TGI: 23.7 µM
OVCAR-5 ovarian
  TGI: 54.1 µM
EKVX NSCLC
  TGI: 48.1 µM
HCT-15 colon
  TGI: 28.1 µM
SK-MEL-5 melanoma
  TGI: 22.7 µM
SW-620 colon
  TGI: > 45 µM
UACC-62 melanoma
  TGI: 22.9 µM
ACHN renal
  TGI: 14.2 µM
786-0 renal
  TGI: 23.4 µM
SNB-19 CNS
  TGI: 52.2 µM
DU-145 prostate
  TGI: 27.4 µM
SF-268 CNS
  TGI: 25.4 µM
SK-OV-3 ovarian
  TGI: 69.6 µM
CAKI-1 renal
  TGI: 13.9 µM
HL-60(TB) leukemia
  TGI: 9.93 µM
PC-3 prostate
  TGI: 39.9 µM
MDA-MB-231 breast
  TGI: 38.4 µM
SK-MEL-28 melanoma
  TGI: 30 µM
A549 NSCLC
  TGI: 47.4 µM
M14 melanoma
  TGI: 22.5 µM
HS 578T breast
  TGI: 48.5 µM
MDA-MB-435
  TGI: 25.3 µM
NCI-H460 lung
  TGI: 21.2 µM
K-562 leukemia
  TGI: 54.8 µM
NCI/ADR-RES ovarian
  TGI: 31.4 µM
RPMI-8226 leukemia
  TGI: 20.3 µM
HCT-116 colon
  TGI: 31.8 µM
KM12 colon
  TGI: 38.3 µM
SN12C renal
  TGI: 35.2 µM
LOX IMVI melanoma
  TGI: 30 µM
SR leukemia
  TGI: 8.45 µM
UO-31 renal
  TGI: 26.6 µM
MCF7 breast
  TGI: > 53.1 µM
SF-295 CNS
  TGI: > 81.4 µM
MALME-3M melanoma
  TGI: 18.3 µM
HOP-62 NSCLC
  TGI: 55.9 µM
HCC-2998 colon
  TGI: 28.6 µM
T-47D breast
  TGI: > 100 µM

## COC(=O)C12C3C4C1C1C2C3C41C(=O)NC(C)(C)CC(=O)O (stereo not given)
A498 renal
  TGI: > 100 µM
SNB-75 CNS
  TGI: > 100 µM
TK-10 renal
  TGI: > 100 µM
UACC-257 melanoma
  TGI: > 100 µM
SF-539 CNS
  TGI: > 100 µM
MDA-N
  TGI: > 100 µM
BT-549 breast
  TGI: > 100 µM
MOLT-4 leukemia
  TGI: > 100 µM
HOP-92 NSCLC
  TGI: > 100 µM
RXF 393 renal
  TGI: > 100 µM
NCI-H226 lung
  TGI: > 100 µM
U251 CNS
  TGI: > 100 µM
NCI-H23 lung
  TGI: > 100 µM
HT29 colon
  TGI: > 100 µM
COLO 205 colon
  TGI: > 100 µM
SK-MEL-2 melanoma
  TGI: > 100 µM
OVCAR-8 ovarian
  TGI: > 100 µM
OVCAR-3 ovarian
  TGI: > 100 µM
IGROV1 ovarian
  TGI: > 100 µM
NCI-H522 lung
  TGI: > 100 µM
CCRF-CEM leukemia
  TGI: > 100 µM
OVCAR-4 ovarian
  TGI: > 100 µM
OVCAR-5 ovarian
  TGI: > 100 µM
EKVX NSCLC
  TGI: > 100 µM
HCT-15 colon
  TGI: > 100 µM
SK-MEL-5 melanoma
  TGI: > 100 µM
SW-620 colon
  TGI: > 100 µM
UACC-62 melanoma
  TGI: > 100 µM
ACHN renal
  TGI: > 100 µM
786-0 renal
  TGI: > 100 µM
SNB-19 CNS
  TGI: > 100 µM
DU-145 prostate
  TGI: > 100 µM
SF-268 CNS
  TGI: > 100 µM
CAKI-1 renal
  TGI: > 100 µM
HL-60(TB) leukemia
  TGI: > 100 µM
PC-3 prostate
  TGI: > 100 µM
MDA-MB-231 breast
  TGI: > 100 µM
SK-MEL-28 melanoma
  TGI: > 100 µM
A549 NSCLC
  TGI: > 100 µM
M14 melanoma
  TGI: > 100 µM
HS 578T breast
  TGI: > 100 µM
MDA-MB-435
  TGI: > 100 µM
NCI-H460 lung
  TGI: 61 µM
NCI/ADR-RES ovarian
  TGI: > 100 µM
RPMI-8226 leukemia
  TGI: > 100 µM
HCT-116 colon
  TGI: > 100 µM
KM12 colon
  TGI: > 100 µM
SN12C renal
  TGI: > 100 µM
LOX IMVI melanoma
  TGI: > 100 µM
SR leukemia
  TGI: > 100 µM
UO-31 renal
  TGI: > 100 µM
MCF7 breast
  TGI: > 100 µM
SF-295 CNS
  TGI: > 100 µM
MALME-3M melanoma
  TGI: > 100 µM
HOP-62 NSCLC
  TGI: > 100 µM
HCC-2998 colon
  TGI: > 100 µM
T-47D breast
  TGI: > 100 µM
